The values that follow come from PubChem BioAssay AID1159565 (GlaxoSmithKline (GSK), 2015).

This assay concerns T. cruzi-infected H9C2 cardiomyocytes, high-content imaging. The experiment in a line: anti-T. cruzi activity in infected cardiomyocytes – imaging, H9C2 host cardiomyocytes, host toxicity (AID 1159565).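 Further: infected cells incubated 72 h after plating.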
The mark [1] stands for this setting: measured here: H9C2 host cell toxicity.
Where [2] appears, read: measured here: amastigotes per cell.

Calls of active or inactive are those of the source. How the calls were made is not given here. Where only a bound is given, the exact number is not on record here.

The term IC50 denotes the concentration that inhibits the measured activity by half. Take `O=C(CN(Cc1ccccn1)Cc1ccccn1)NCc1csc(-c2cccs2)n1`: the IC50 is 6300 nM. This compound also yielded a 50% inhibitory concentration (IC50) under setting [1] of more than 50000 nM. This compound also gave an IC50 under setting [2] of 2500 nM.
For `COc1ccc(C2CC(c3ccc(NS(C)(=O)=O)cc3)=NN2C(=O)c2cccs2)cc1OC` (stereo not drawn), in that order: 32000 nM, more than 50000 nM and 16000 nM.
With `Cc1cc2cc(CNc3ccc4c(c3)OCO4)c(=O)n(CCO)c2cc1C`, the IC50 was 250 nM. Under setting [1], this compound had an IC50 of more than 50000 nM. Under setting [2], the IC50 was 200 nM.
For `O=C(Cn1cnc2cc([N+](=O)[O-])ccc2c1=O)NCCc1ccc(Cl)cc1Cl`, in that order: 400 nM, more than 50000 nM and 200 nM.
For `O=C(Nc1nc(-c2ccc(S(=O)(=O)N3CCOCC3)cc2)cs1)c1ccc([N+](=O)[O-])cc1`, in that order: 1600 nM, more than 50000 nM and 500 nM.
Take `CN1C(=O)c2ccccc2Sc2ccc(NC(=O)NCc3ccco3)cc21`: the IC50 is 13000 nM. Besides, the IC50 under setting [1] was found to be 25000 nM. Further, the half-maximal inhibitory concentration (IC50) under setting [2] turned out to be 6300 nM.
For `CC(C)C[C@H](NC(=O)c1ccc(-c2ccccc2)o1)C(=O)NC1(C#N)CC1`, in that order: > 50000 nM (inactive), more than 50000 nM and 25000 nM.
The like results for `O=C(CSc1nnc2ccc(-c3ccc(F)cc3)nn12)N1CCCCC1` were, in that order, 2000 nM, more than 50000 nM and 1000 nM.
The like results for `O=C(Nc1ccc(Br)cn1)c1ccc(Cn2cnc([N+](=O)[O-])n2)cc1` were, in that order, 130 nM, more than 50000 nM and 79 nM.
For `N#Cc1cccc(Nc2nccc(N3CCC(NS(=O)(=O)c4cccc(C#N)c4)CC3)n2)c1`, the IC50 is 7900 nM. Under setting [1], the IC50 came out at 32000 nM. Further, under setting [2], the IC50 was 3200 nM.
In the case of `COc1ccc(-c2nc3ncccc3o2)cc1NC(=O)c1cccs1`, the half-inhibitory concentration (IC50) is 2500 nM. Under setting [1], this compound had an IC50 of more than 50000 nM. This compound returned an IC50 under setting [2] of 2000 nM.
The like results for `CS(=O)(=O)N1CCC(Nc2ncc(Br)c(Nc3cccc(F)c3C(N)=O)n2)CC1` were, in that order, 1000 nM, 160 nM and 400 nM.
The like results for `O=C(Nc1nc(-c2ccc(F)cc2)cs1)c1ccc([N+](=O)[O-])s1` were, in that order, 250 nM, 4000 nM and 160 nM.
For `CC(C)CC(=O)NC(c1cccs1)c1ccc2cccnc2c1O` (stereo not drawn), in that order: 1300 nM, 2000 nM and 790 nM.
As to `COc1ccccc1CNc1cc(C2CC2)nc(-c2nccn2C)n1`, the IC50 is 790 nM. Besides, the IC50 under setting [1] was determined as 630 nM. Under setting [2], this compound yielded an IC50 of 1000 nM.
The like results for `O=C(CC1(O)C(=O)N(Cc2cccs2)c2ccc(Br)cc21)c1cccnc1` (stereo not drawn) were, in that order, 40000 nM, 4000 nM and 25000 nM.
For `Cn1nc(-c2ccc(NC(=O)Cc3ccccc3Cl)cc2)c2c(N)ncnc21`, in that order: 1300 nM, 7900 nM and 1000 nM.
For `CCN(Cc1ccncc1)Cc1ccc(NC(=O)c2cc(-c3ccc(F)cc3)n[nH]2)cc1`, in that order: 250 nM, more than 50000 nM and 250 nM.
On to `O=C(NCC1CCCCN1C(=O)c1cccc2ccccc12)c1ccccc1` (stereo not drawn), for which the IC50 is 5000 nM. The compound also had an IC50 under setting [1] of more than 50000 nM. The compound further gave an IC50 under setting [2] of 3200 nM.
For `CNS(=O)(=O)c1ccccc1Nc1nc(Nc2ccnn2C)ncc1Cl`, in that order: 1000 nM, 160 nM and 630 nM.
For `O=C(NCCc1csc(-c2ccc(F)cc2)n1)c1ccco1`, in that order: 1600 nM, more than 50000 nM and 1300 nM.
In the case of `CCn1c(-c2nonc2N)nc2c([C@@H](C)O)ncc(O[C@H](CN)c3ccccc3)c21`, the half-maximal inhibitory concentration (IC50) was 10000 nM. This compound had an IC50 under setting [1] of 630 nM. Under setting [2], the IC50 was determined as 7900 nM.
For `COc1ccnc2[nH]cc(-c3cc(C(=O)N[C@H](CO)c4ccccc4)co3)c12`, in that order: 20000 nM, 320 nM and 7900 nM.
For `O=C(CCc1ccc(-c2ccccc2)o1)N1CCN(c2ccc(O)cc2)CC1`, in that order: 1300 nM, more than 50000 nM and 790 nM.
The like results for `CN(C)S(=O)(=O)c1cccc(C(=O)Nc2nc(-c3ccccn3)cs2)c1` were, in that order, 1600 nM, 7900 nM and 1000 nM.
As to `O=c1cc(NCCCNCc2c[nH]c3ccc(Br)cc23)[nH]c2ccccc12`, the IC50 was > 50000 nM (inactive). Also, under setting [1], the IC50 was more than 50000 nM. For the same compound, the IC50 under setting [2] came to 32000 nM.
As for `Cc1cc(=O)n2nc(Oc3ccc(C#N)cc3Cl)sc2n1`, the IC50 is 32000 nM. Also, the half-inhibitory concentration (IC50) under setting [1] was determined as 32000 nM. Further, the IC50 under setting [2] stood at 25000 nM.
`O=C(Nc1ccc(C(=O)N2CCCC2c2ccc3c(c2)OCCCO3)cc1)c1ccco1` (stereo not drawn): the IC50 is 1000 nM. The compound also returned a half-maximal inhibitory concentration (IC50) under setting [1] of more than 50000 nM. Besides, the IC50 under setting [2] came to 630 nM.
Consider `Cc1cc2cncn2c(C2CCCCN2C(=O)c2cccs2)n1` (stereo not drawn), for which the half-maximal inhibitory concentration (IC50) is 63 nM. Under setting [1], the IC50 was more than 50000 nM. For the same compound, the IC50 under setting [2] was found to be 63 nM.
In the case of `COc1ccc(Nc2nc(NC3CCC(O)CC3)ncc2Br)c(C(N)=O)c1` (stereo not drawn), the IC50 was 3200 nM. Besides, the IC50 under setting [1] was determined as 790 nM. The compound also registered an IC50 under setting [2] of 2000 nM.
As to `Cc1ccccc1NS(=O)(=O)c1ccc2[nH]cc(C(=O)NC3CCCC3)c(=O)c2c1`, the IC50 was 32000 nM. For the same compound, under setting [1], the IC50 was 20000 nM. For the same compound, the half-maximal inhibitory concentration (IC50) under setting [2] was determined as 25000 nM.
For `O=C(Nc1ccc(Br)c(Cl)c1)Nc1ccc2c(c1)OCO2`, in that order: 5000 nM, more than 50000 nM and 2000 nM.
For `Cc1c([N+](=O)[O-])c(C(=O)Nc2sc3c(c2C#N)CCC(C)C3)nn1C` (stereo not drawn), in that order: 2500 nM, more than 50000 nM and 1600 nM.
The like results for `Cc1[nH]nc2c1C(c1ccc(OCc3ccccc3F)cc1)SCC(=O)N2` (stereo not drawn) were, in that order, 3200 nM, more than 50000 nM and 790 nM.
On to `c1ccc(Nc2nc3ccccc3[nH]2)nc1`, for which the IC50 is 25000 nM. For the same compound, the IC50 under setting [1] amounted to 10000 nM. Under setting [2], this compound yielded an IC50 of 10000 nM.
On to `O=C1NCCn2ccc(Nc3nc(NC4CCC(O)CC4)ncc3Cl)c21` (stereo not drawn), for which the IC50 was 20000 nM. Moreover, the IC50 under setting [1] worked out at 400 nM. Under setting [2], this compound gave an IC50 of 3200 nM.
Consider `CN(C)Cc1cccc(Nc2nccc(-c3ccc(NCCN)c(C#N)c3)n2)c1`, for which the IC50 is 10000 nM. Under setting [1], this compound registered an IC50 of 2000 nM. This compound also registered an IC50 under setting [2] of 1600 nM.
With `CS(=O)(=O)c1ccc(Nc2nccc(-c3cnn4ncccc34)n2)cc1`, the IC50 is 25000 nM. This compound yielded an IC50 under setting [1] of 5000 nM. The compound also registered an IC50 under setting [2] of 1000 nM.
The like results for `O=C(CC1(O)C(=O)N(Cc2ccccc2)c2ccc(Br)cc21)c1cccnc1` (stereo not drawn) were, in that order, 25000 nM, 3200 nM and 20000 nM.
The like results for `CC(C)c1sc(Cl)nc1C(=O)NCCc1nc(C(=O)Nc2ccc3c(c2)OCO3)cs1` were, in that order, 1000 nM, more than 50000 nM and 630 nM.
For `O=C(c1ccccc1)N1CCC(C(=O)N2CCC(Oc3ccccc3Cl)CC2)CC1`, in that order: 32000 nM, more than 50000 nM and 25000 nM.
`CCN(CC)S(=O)(=O)c1ccc(Cn2nc(C(=O)Nc3ccncn3)c3ccccc32)cc1`: the IC50 is 400 nM. Moreover, under setting [1], the IC50 was 25000 nM. This compound also displayed an IC50 under setting [2] of 400 nM.
With `COc1cnc2ccc(=O)n(CCN3CCC(NC(=O)c4ccc(Cl)cc4)CC3)c2c1`, the IC50 is 250 nM. The compound further showed an IC50 under setting [1] of 630 nM. Under setting [2], this compound displayed an IC50 of 79 nM.
The like results for `Cn1c(CN2CCN(c3ncc(C(F)(F)F)cc3Cl)CC2)nc2ccncc21` were, in that order, 1000 nM, more than 50000 nM and 1000 nM.
As for `COc1cccc(C(=O)[C@H]2C[C@@H]2CN(Cc2cccnc2)Cc2cccnc2)c1`, the IC50 is 63 nM. Under setting [1], this compound had an IC50 of more than 50000 nM. Moreover, the IC50 under setting [2] is 50 nM.
`CC(C)(C)CC(=O)NCCc1csc(-c2ccc(F)cc2)n1`: the IC50 is 1000 nM. Moreover, under setting [1], the IC50 was more than 50000 nM. Moreover, under setting [2], the IC50 came to 790 nM.
With `COc1ccc(OC)c(NC(=O)c2ccc([N+](=O)[O-])o2)c1`, the IC50 is 13000 nM. Also, under setting [1], the IC50 is 4000 nM. The compound further gave an IC50 under setting [2] of 7900 nM.
For `COCc1cc(Nc2ccccc2)nc(-c2ccccn2)n1`, in that order: 25000 nM, 4000 nM and 13000 nM.
For `COc1ccc(S(=O)(=O)NCc2ccc(-c3ccc(CN(C)CCO)cc3)cc2)cc1`, in that order: 2500 nM, more than 50000 nM and 1300 nM.
Regarding `Cc1nc2c(-c3cccs3)c(C)nn2c(NCCO)c1C`, the IC50 is 32000 nM. Moreover, under setting [1], the concentration for half-maximal inhibition (IC50) was more than 50000 nM. Moreover, under setting [2], the IC50 was 16000 nM.
Consider `COc1cccc(NS(=O)(=O)c2ccc3[nH]cc(C(=O)NCCC(C)C)c(=O)c3c2)c1`, for which the IC50 was 32000 nM. The IC50 under setting [1] was found to be 13000 nM. This compound also had an IC50 under setting [2] of 16000 nM.
For `CN(C)Cc1ccc(-c2ccc(S(=O)(=O)NCC3CCCO3)c(F)c2)cc1` (stereo not drawn), the IC50 is 5000 nM. This compound showed an IC50 under setting [1] of 63000 nM. Under setting [2], this compound gave an IC50 of 2000 nM.
For `N#Cc1nc(C=Cc2ccccc2)oc1NCc1cccnc1`, in that order: 400 nM, 16000 nM and 400 nM.
The like results for `Cc1cccc(NS(=O)(=O)c2cnc3sc(C)cn3c2=O)c1` were, in that order, 2000 nM, 6300 nM and 1000 nM.
On to `O=C(Nc1ccccc1)Nc1nc(-c2ccccn2)cs1`, for which the IC50 is 1000 nM. Under setting [1], this compound had an IC50 of 1000 nM. Moreover, the IC50 under setting [2] is 630 nM.
For the compound `Cc1ccc2sc(NC(=O)Cn3cnc([N+](=O)[O-])n3)nc2c1`, the IC50 was 4000 nM. For the same compound, under setting [1], the IC50 was more than 50000 nM. Further, under setting [2], the IC50 is 500 nM.
